Experimental data reported in PubChem BioAssay AID1963974 (Molecular Pharmacology Branch, DTP, NCI, 2024).
pIC50: −log10 of the molar value.

Tested on: 648629-189-R-J1-PDC spheroids with HUVEC/MSC, viability
Experiment: Anticancer human tumor 648629-189-R-J1-PDC patient-derived bladder carcinoma cell line growth inhibition [PI3K]
Conditions: for pIC50: curve of first compound; for viability, T/C: stronger effect = lower value
In short: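 Tumor cells grown as multi-cell spheroids with HUVEC endothelial cells and MSC fibroblast-like stroma were treated with targeted agents combined with inavolisib, alpelisib, duvelisib or copanlisib. Doses fell in half-log steps from near clinical Cmax, else from 10 microM. Viability was measured.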

[1] = second compound 0.0316 µM, first compound 0.0316 µM
[2] = second compound 0.0316 µM, first compound 0.1 µM
[3] = second compound 0.0316 µM, first compound 0.316 µM
[4] = second compound 0.0316 µM, first compound 1 µM
[5] = second compound 0.0316 µM, first compound 3.16 µM
[6] = second compound 0.0316 µM, first compound 10 µM
[7] = second compound 0.1 µM, first compound 0.0316 µM
[8] = second compound 0.1 µM, first compound 0.1 µM
[9] = second compound 0.1 µM, first compound 0.316 µM
[10] = second compound 0.1 µM, first compound 1 µM
[11] = second compound 0.1 µM, first compound 3.16 µM
[12] = second compound 0.1 µM, first compound 10 µM
[13] = second compound 0.316 µM, first compound 0.0316 µM
[14] = second compound 0.316 µM, first compound 0.1 µM
[15] = second compound 0.316 µM, first compound 0.316 µM
[16] = second compound 0.316 µM, first compound 1 µM
[17] = second compound 0.316 µM, first compound 3.16 µM
[18] = second compound 0.316 µM, first compound 10 µM
[19] = second compound 1 µM, first compound 0.0316 µM
[20] = second compound 1 µM, first compound 0.1 µM
[21] = second compound 1 µM, first compound 0.316 µM
[22] = second compound 1 µM, first compound 1 µM
[23] = second compound 1 µM, first compound 3.16 µM
[24] = second compound 1 µM, first compound 10 µM
[25] = second compound 3.16 µM, first compound 0.0316 µM
[26] = second compound 3.16 µM, first compound 0.1 µM
[27] = second compound 3.16 µM, first compound 0.316 µM
[28] = second compound 3.16 µM, first compound 1 µM
[29] = second compound 3.16 µM, first compound 3.16 µM
[30] = second compound 3.16 µM, first compound 10 µM
[31] = second compound 10 µM, first compound 0.0316 µM
[32] = second compound 10 µM, first compound 0.1 µM
[33] = second compound 10 µM, first compound 0.316 µM
[34] = second compound 10 µM, first compound 1 µM
[35] = second compound 10 µM, first compound 3.16 µM
[36] = second compound 10 µM, first compound 10 µM
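Also: spheroids exposed to agents for seven days before reading.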
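For viability, T/C in this document: percent of vehicle control luminescence where 100% = DMSO treated spheroids.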

CC1(C)CCC(CN2CCN(c3ccc(C(=O)NS(=O)(=O)c4ccc(NCC5CCOCC5)c([N+](=O)[O-])c4)c(Oc4cnc5[nH]ccc5c4)c3)CC2)=C(c2ccc(Cl)cc2)C1 + CC(Nc1ncnc2nc[nH]c12)c1cc2cccc(Cl)c2c(=O)n1-c1ccccc1
pIC50 (second compound 0.0316 µM): < 5.00
pIC50 (second compound 0.1 µM): < 5.00
pIC50 (second compound 0.316 µM): < 5.00
pIC50 (second compound 1 µM): < 5.00
pIC50 (second compound 3.16 µM): < 5.00
pIC50 (second compound 10 µM): < 5.00
viability, T/C [1]: 112%
viability, T/C [2]: 95.7%
viability, T/C [3]: 97.3%
viability, T/C [4]: 93.1%
viability, T/C [5]: 83.4%
viability, T/C [6]: 70.3%
viability, T/C [7]: 102%
viability, T/C [8]: 85%
viability, T/C [9]: 104%
viability, T/C [10]: 92.3%
viability, T/C [11]: 89.4%
viability, T/C [12]: 64%
viability, T/C [13]: 92.2%
viability, T/C [14]: 109%
viability, T/C [15]: 95.8%
viability, T/C [16]: 94.5%
viability, T/C [17]: 97.9%
viability, T/C [18]: 65.9%
viability, T/C [19]: 95.6%
viability, T/C [20]: 108%
viability, T/C [21]: 102%
viability, T/C [22]: 85.4%
viability, T/C [23]: 90.2%
viability, T/C [24]: 68.4%
viability, T/C [25]: 103%
viability, T/C [26]: 101%
viability, T/C [27]: 91.2%
viability, T/C [28]: 99.5%
viability, T/C [29]: 88.6%
viability, T/C [30]: 60.1%
viability, T/C [31]: 83.7%
viability, T/C [32]: 97%
viability, T/C [33]: 87.8%
viability, T/C [34]: 84.8%
viability, T/C [35]: 68.9%
viability, T/C [36]: 59.2%

CCCS(=O)(=O)Nc1ccc(F)c(C(=O)c2c[nH]c3ncc(-c4ccc(Cl)cc4)cc23)c1F + CC(Nc1ncnc2nc[nH]c12)c1cc2cccc(Cl)c2c(=O)n1-c1ccccc1
pIC50 (second compound 0.0316 µM): 5.28
pIC50 (second compound 0.1 µM): 5.25
pIC50 (second compound 0.316 µM): 5.28
pIC50 (second compound 1 µM): 5.28
pIC50 (second compound 3.16 µM): 5.37
pIC50 (second compound 10 µM): 5.41
viability, T/C [1]: 99.8%
viability, T/C [2]: 95.1%
viability, T/C [3]: 120%
viability, T/C [4]: 98.3%
viability, T/C [5]: 88.2%
viability, T/C [6]: 0.98%
viability, T/C [7]: 103%
viability, T/C [8]: 96.7%
viability, T/C [9]: 91.8%
viability, T/C [10]: 98.9%
viability, T/C [11]: 100%
viability, T/C [12]: 0.84%
viability, T/C [13]: 109%
viability, T/C [14]: 108%
viability, T/C [15]: 99.2%
viability, T/C [16]: 109%
viability, T/C [17]: 89.4%
viability, T/C [18]: 0.43%
viability, T/C [19]: 101%
viability, T/C [20]: 88.7%
viability, T/C [21]: 96.2%
viability, T/C [22]: 99.2%
viability, T/C [23]: 89.1%
viability, T/C [24]: 0.46%
viability, T/C [25]: 91.1%
viability, T/C [26]: 103%
viability, T/C [27]: 92.2%
viability, T/C [28]: 89.5%
viability, T/C [29]: 67.6%
viability, T/C [30]: 0.83%
viability, T/C [31]: 86.9%
viability, T/C [32]: 77.6%
viability, T/C [33]: 81.9%
viability, T/C [34]: 80.2%
viability, T/C [35]: 60.6%
viability, T/C [36]: 1.35%

C[C@@H](NC(=O)c1ncnc(N)c1Cl)c1ncc(C(=O)Nc2cc(C(F)(F)F)c(Cl)cn2)s1 + CC(Nc1ncnc2nc[nH]c12)c1cc2cccc(Cl)c2c(=O)n1-c1ccccc1
pIC50 (second compound 0.0316 µM): < 5.00
pIC50 (second compound 0.1 µM): < 5.00
pIC50 (second compound 0.316 µM): < 5.00
pIC50 (second compound 1 µM): < 5.00
pIC50 (second compound 3.16 µM): < 5.00
pIC50 (second compound 10 µM): < 5.00
viability, T/C [1]: 98.8%
viability, T/C [2]: 104%
viability, T/C [3]: 111%
viability, T/C [4]: 108%
viability, T/C [5]: 118%
viability, T/C [6]: 130%
viability, T/C [7]: 113%
viability, T/C [8]: 97.2%
viability, T/C [9]: 112%
viability, T/C [10]: 109%
viability, T/C [11]: 112%
viability, T/C [12]: 113%
viability, T/C [13]: 105%
viability, T/C [14]: 110%
viability, T/C [15]: 102%
viability, T/C [16]: 118%
viability, T/C [17]: 112%
viability, T/C [18]: 115%
viability, T/C [19]: 115%
viability, T/C [20]: 89%
viability, T/C [21]: 113%
viability, T/C [22]: 114%
viability, T/C [23]: 113%
viability, T/C [24]: 116%
viability, T/C [25]: 112%
viability, T/C [26]: 98.5%
viability, T/C [27]: 98.3%
viability, T/C [28]: 104%
viability, T/C [29]: 107%
viability, T/C [30]: 104%
viability, T/C [31]: 103%
viability, T/C [32]: 81%
viability, T/C [33]: 78.8%
viability, T/C [34]: 86.5%
viability, T/C [35]: 91.8%
viability, T/C [36]: 85.1%
